Test results as given in patent US8192962B2, “Processes for detecting toxic substances” (Daikin Industries, Ltd., priority 2001, dated 2012).

Test system: Stress protein genes
Experiment: DNA chip mRNA expression in yeast, stress protein genes (Table 6)
Type: cell-based, Saccharomyces cerevisiae S288C
Summary of the method: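 Chemical exposure: 2 h, log-phase S. cerevisiae S288C, YPD, 25° C., dose set to inhibit growth without death. Profiling: mRNA labeled by reverse transcription with Cy3- or Cy5-dUTP, hybridized to whole-genome array. Output: fluorescence ratio against untreated culture.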

S=C([S-])NCCNC(=S)[S-].[Zn+2] [(11), zinc N,N′-ethylenebis(dithiocarbamate)]
The level of expressed mRNA in the presence of chemical substance/The level of expressed mRNA in the absence of chemical substance (yeast gene YAL005C): 1.0 | The level of expressed mRNA in the presence of chemical substance/The level of expressed mRNA in the absence of chemical substance (yeast gene YAL015C): 1.4 | The level of expressed mRNA in the presence of chemical substance/The level of expressed mRNA in the absence of chemical substance (yeast gene YBL075C): 1.6 | The level of expressed mRNA in the presence of chemical substance/The level of expressed mRNA in the absence of chemical substance (yeast gene YBL093C): 1.3 | The level of expressed mRNA in the presence of chemical substance/The level of expressed mRNA in the absence of chemical substance (yeast gene YBR044C): 1.1 | The level of expressed mRNA in the presence of chemical substance/The level of expressed mRNA in the absence of chemical substance (yeast gene YBR054W): 1.8 | The level of expressed mRNA in the presence of chemical substance/The level of expressed mRNA in the absence of chemical substance (yeast gene YBR067C): 3.1 | The level of expressed mRNA in the presence of chemical substance/The level of expressed mRNA in the absence of chemical substance (yeast gene YBR072W): 6.3 | The level of expressed mRNA in the presence of chemical substance/The level of expressed mRNA in the absence of chemical substance (yeast gene YBR126C): 1.1 | The level of expressed mRNA in the presence of chemical substance/The level of expressed mRNA in the absence of chemical substance (yeast gene YBR169C): 2.2 | The level of expressed mRNA in the presence of chemical substance/The level of expressed mRNA in the absence of chemical substance (yeast gene YCL035C): 2.1 | The level of expressed mRNA in the presence of chemical substance/The level of expressed mRNA in the absence of chemical substance (yeast gene YCR021C): 0.6 | The level of expressed mRNA in the presence of chemical substance/The level of expressed mRNA in the absence of chemical substance (yeast gene YCR060W): 1.2 | The level of expressed mRNA in the presence of chemical substance/The level of expressed mRNA in the absence of chemical substance (yeast gene YCR083W): 1.8 | The level of expressed mRNA in the presence of chemical substance/The level of expressed mRNA in the absence of chemical substance (yeast gene YDL022W): 2.8 | The level of expressed mRNA in the presence of chemical substance/The level of expressed mRNA in the absence of chemical substance (yeast gene YDL025C): 1.5 | The level of expressed mRNA in the presence of chemical substance/The level of expressed mRNA in the absence of chemical substance (yeast gene YDR033W): 0.7 | The level of expressed mRNA in the presence of chemical substance/The level of expressed mRNA in the absence of chemical substance (yeast gene YDR077W): 6.8 | The level of expressed mRNA in the presence of chemical substance/The level of expressed mRNA in the absence of chemical substance (yeast gene YDR098C): 1.4 | The level of expressed mRNA in the presence of chemical substance/The level of expressed mRNA in the absence of chemical substance (yeast gene YDR155C): 3.8 | The level of expressed mRNA in the presence of chemical substance/The level of expressed mRNA in the absence of chemical substance (yeast gene YDR258C): 1.7 | The level of expressed mRNA in the presence of chemical substance/The level of expressed mRNA in the absence of chemical substance (yeast gene YDR293C): 1.1 | The level of expressed mRNA in the presence of chemical substance/The level of expressed mRNA in the absence of chemical substance (yeast gene YDR436W): 2.0 | The level of expressed mRNA in the presence of chemical substance/The level of expressed mRNA in the absence of chemical substance (yeast gene YDR513W): 2.0 | The level of expressed mRNA in the presence of chemical substance/The level of expressed mRNA in the absence of chemical substance (yeast gene YDR519W): 1.2 | The level of expressed mRNA in the presence of chemical substance/The level of expressed mRNA in the absence of chemical substance (yeast gene YEL030W): 1.7 | The level of expressed mRNA in the presence of chemical substance/The level of expressed mRNA in the absence of chemical substance (yeast gene YEL039C): 1.7 | The level of expressed mRNA in the presence of chemical substance/The level of expressed mRNA in the absence of chemical substance (yeast gene YER042W): 1.8 | The level of expressed mRNA in the presence of chemical substance/The level of expressed mRNA in the absence of chemical substance (yeast gene YER057C): 1.8 | The level of expressed mRNA in the presence of chemical substance/The level of expressed mRNA in the absence of chemical substance (yeast gene YER103W): 1.8 | The level of expressed mRNA in the presence of chemical substance/The level of expressed mRNA in the absence of chemical substance (yeast gene YER125W): 1.0 | The level of expressed mRNA in the presence of chemical substance/The level of expressed mRNA in the absence of chemical substance (yeast gene YFL014W): 5.0 | The level of expressed mRNA in the presence of chemical substance/The level of expressed mRNA in the absence of chemical substance (yeast gene YFL016C): 1.2 | The level of expressed mRNA in the presence of chemical substance/The level of expressed mRNA in the absence of chemical substance (yeast gene YFL020C): 1.2 | The level of expressed mRNA in the presence of chemical substance/The level of expressed mRNA in the absence of chemical substance (yeast gene YFR052W): 0.9 | The level of expressed mRNA in the presence of chemical substance/The level of expressed mRNA in the absence of chemical substance (yeast gene YGL073W): 0.8 | The level of expressed mRNA in the presence of chemical substance/The level of expressed mRNA in the absence of chemical substance (yeast gene YGL115W): 1.0 | The level of expressed mRNA in the presence of chemical substance/The level of expressed mRNA in the absence of chemical substance (yeast gene YGL181W): 1.2 | The level of expressed mRNA in the presence of chemical substance/The level of expressed mRNA in the absence of chemical substance (yeast gene YGR088W): 3.9 | The level of expressed mRNA in the presence of chemical substance/The level of expressed mRNA in the absence of chemical substance (yeast gene YHL028W): 0.7 | The level of expressed mRNA in the presence of chemical substance/The level of expressed mRNA in the absence of chemical substance (yeast gene YHL046C): 0.4 | The level of expressed mRNA in the presence of chemical substance/The level of expressed mRNA in the absence of chemical substance (yeast gene YHR030C): 1.5 | The level of expressed mRNA in the presence of chemical substance/The level of expressed mRNA in the absence of chemical substance (yeast gene YHR057C): 1.6 | The level of expressed mRNA in the presence of chemical substance/The level of expressed mRNA in the absence of chemical substance (yeast gene YHR104W): 2.6 | The level of expressed mRNA in the presence of chemical substance/The level of expressed mRNA in the absence of chemical substance (yeast gene YIL011W): 2.5 | The level of expressed mRNA in the presence of chemical substance/The level of expressed mRNA in the absence of chemical substance (yeast gene YIL033C): 1.8 | The level of expressed mRNA in the presence of chemical substance/The level of expressed mRNA in the absence of chemical substance (yeast gene YIR037W): 3.0 | The level of expressed mRNA in the presence of chemical substance/The level of expressed mRNA in the absence of chemical substance (yeast gene YIR038C): 3.4 | The level of expressed mRNA in the presence of chemical substance/The level of expressed mRNA in the absence of chemical substance (yeast gene YJL128C): 0.6 | The level of expressed mRNA in the presence of chemical substance/The level of expressed mRNA in the absence of chemical substance (yeast gene YJL158C): 1.9 | The level of expressed mRNA in the presence of chemical substance/The level of expressed mRNA in the absence of chemical substance (yeast gene YJL159W): 1.2 | The level of expressed mRNA in the presence of chemical substance/The level of expressed mRNA in the absence of chemical substance (yeast gene YJL165C): 1.7 | The level of expressed mRNA in the presence of chemical substance/The level of expressed mRNA in the absence of chemical substance (yeast gene YJR045C): 1.4 | The level of expressed mRNA in the presence of chemical substance/The level of expressed mRNA in the absence of chemical substance (yeast gene YJR090C): 0.4 | The level of expressed mRNA in the presence of chemical substance/The level of expressed mRNA in the absence of chemical substance (yeast gene YKL161C): 3.1 | The level of expressed mRNA in the presence of chemical substance/The level of expressed mRNA in the absence of chemical substance (yeast gene YKL163W): 1.3 | The level of expressed mRNA in the presence of chemical substance/The level of expressed mRNA in the absence of chemical substance (yeast gene YKL164C): 1.0 | The level of expressed mRNA in the presence of chemical substance/The level of expressed mRNA in the absence of chemical substance (yeast gene YKL210W): 1.4 | The level of expressed mRNA in the presence of chemical substance/The level of expressed mRNA in the absence of chemical substance (yeast gene YKR053C): 0.5 | The level of expressed mRNA in the presence of chemical substance/The level of expressed mRNA in the absence of chemical substance (yeast gene YLL024C): 1.6 | The level of expressed mRNA in the presence of chemical substance/The level of expressed mRNA in the absence of chemical substance (yeast gene YLL026W): 1.7 | The level of expressed mRNA in the presence of chemical substance/The level of expressed mRNA in the absence of chemical substance (yeast gene YLL039C): 1.1 | The level of expressed mRNA in the presence of chemical substance/The level of expressed mRNA in the absence of chemical substance (yeast gene YLL060C): 14.1 | The level of expressed mRNA in the presence of chemical substance/The level of expressed mRNA in the absence of chemical substance (yeast gene YLR006C): 1.5 | The level of expressed mRNA in the presence of chemical substance/The level of expressed mRNA in the absence of chemical substance (yeast gene YLR109W): 1.5 | The level of expressed mRNA in the presence of chemical substance/The level of expressed mRNA in the absence of chemical substance (yeast gene YLR259C): 3.0 | The level of expressed mRNA in the presence of chemical substance/The level of expressed mRNA in the absence of chemical substance (yeast gene YML007W): 1.3 | The level of expressed mRNA in the presence of chemical substance/The level of expressed mRNA in the absence of chemical substance (yeast gene YML070W): 1.5 | The level of expressed mRNA in the presence of chemical substance/The level of expressed mRNA in the absence of chemical substance (yeast gene YMR021C): 0.9 | The level of expressed mRNA in the presence of chemical substance/The level of expressed mRNA in the absence of chemical substance (yeast gene YMR173W): 3.2 | The level of expressed mRNA in the presence of chemical substance/The level of expressed mRNA in the absence of chemical substance (yeast gene YMR186W): 1.1 | The level of expressed mRNA in the presence of chemical substance/The level of expressed mRNA in the absence of chemical substance (yeast gene YNL064C): 0.9 | The level of expressed mRNA in the presence of chemical substance/The level of expressed mRNA in the absence of chemical substance (yeast gene YNL160W): 5.4 | The level of expressed mRNA in the presence of chemical substance/The level of expressed mRNA in the absence of chemical substance (yeast gene YNL241C): 3.0 | The level of expressed mRNA in the presence of chemical substance/The level of expressed mRNA in the absence of chemical substance (yeast gene YNR076W): 1.4 | The level of expressed mRNA in the presence of chemical substance/The level of expressed mRNA in the absence of chemical substance (yeast gene YOL064C): 1.0 | The level of expressed mRNA in the presence of chemical substance/The level of expressed mRNA in the absence of chemical substance (yeast gene YOL161C): 1.5 | The level of expressed mRNA in the presence of chemical substance/The level of expressed mRNA in the absence of chemical substance (yeast gene YOR008C): 1.0 | The level of expressed mRNA in the presence of chemical substance/The level of expressed mRNA in the absence of chemical substance (yeast gene YOR009W): 1.4 | The level of expressed mRNA in the presence of chemical substance/The level of expressed mRNA in the absence of chemical substance (yeast gene YOR010C): 1.2 | The level of expressed mRNA in the presence of chemical substance/The level of expressed mRNA in the absence of chemical substance (yeast gene YOR027W): 1.3 | The level of expressed mRNA in the presence of chemical substance/The level of expressed mRNA in the absence of chemical substance (yeast gene YOR208W): 1.2 | The level of expressed mRNA in the presence of chemical substance/The level of expressed mRNA in the absence of chemical substance (yeast gene YPL059W): 1.6 | The level of expressed mRNA in the presence of chemical substance/The level of expressed mRNA in the absence of chemical substance (yeast gene YPL106C): 1.3 | The level of expressed mRNA in the presence of chemical substance/The level of expressed mRNA in the absence of chemical substance (yeast gene YPL140C): 0.8 | The level of expressed mRNA in the presence of chemical substance/The level of expressed mRNA in the absence of chemical substance (yeast gene YPL194W): 0.9 | The level of expressed mRNA in the presence of chemical substance/The level of expressed mRNA in the absence of chemical substance (yeast gene YPL223C): 1.8 | The level of expressed mRNA in the presence of chemical substance/The level of expressed mRNA in the absence of chemical substance (yeast gene YPL240C): 1.0 | The level of expressed mRNA in the presence of chemical substance/The level of expressed mRNA in the absence of chemical substance (yeast gene YPR005C): 0.4 | The level of expressed mRNA in the presence of chemical substance/The level of expressed mRNA in the absence of chemical substance (yeast gene YPR026W): 1.6
